Laboratory results reported in ChEMBL document CHEMBL1201862, “PubChem BioAssay data set” (2004).
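Where inhibition never reached the appropriate level, the endpoint shown equals the highest concentration tested. Otherwise, values were interpolated linearly from a five-concentration, 48-hour dose response in 96-well plates. At the GI50, growth is halved.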 The source made the active and inactive calls. Cut-off read from the data, not from the text of the source: active = GI50 up to about 1.1 µM and inactive = higher.

Key:
Test in all cases: NCI-60 cell line screen, 48 h
[1] = test system: EKVX
[2] = test system: MDA-MB-435
[3] = test system: PC-3
[4] = test system: ACHN
[5] = test system: HOP-92
[6] = test system: IGROV-1
[7] = test system: OVCAR-8
[8] = test system: SNB-19
[9] = test system: DU-145
[10] = test system: SF-295
[11] = test system: NCI-H460
[12] = test system: MDA-MB-231
[13] = test system: SK-OV-3
[14] = test system: SW-620
[15] = test system: KM12
[16] = test system: RPMI-8226
[17] = test system: HCT-116
[18] = test system: HL-60
[19] = test system: T47D
[20] = test system: OVCAR-3
[21] = test system: SF-268
[22] = test system: NCI-H23
[23] = test system: NCI-H226
[24] = test system: MDA-N
[25] = test system: TK-10
[26] = test system: OVCAR-4
[27] = test system: HCT-15
[28] = test system: HT-29
[29] = test system: Hs-578T
[30] = test system: SK-MEL-5
[31] = test system: 786-0
[32] = test system: M14
[33] = test system: BT-549
[34] = test system: UO-31
[35] = test system: Malme-3M
[36] = test system: A549
[37] = test system: A498
[38] = test system: MOLT-4
[39] = test system: MCF7
[40] = test system: HOP-62
[41] = test system: SK-MEL-28
[42] = test system: U-251
[43] = test system: UACC-257
[44] = test system: SN12C
[45] = test system: NCI/ADR-RES
[46] = test system: NCI-H522
[47] = test system: OVCAR-5
[48] = test system: LOX IMVI
[49] = test system: CAKI-1
[50] = test system: K562
[51] = test system: SNB-75
[52] = test system: CCRF-CEM
[53] = test system: UACC-62
[54] = test system: SF-539
[55] = test system: HCC 2998
[56] = test system: COLO 205
[57] = test system: SK-MEL-2
[58] = test system: RXF 393

With `COc1ccccc1/C=C/c1cnccn1` the GI50 [1] was > 10 µM (inactive), the GI50 [2] was > 10 µM (inactive) and the GI50 [3] was > 10 µM (inactive). For the same compound, the GI50 [4] was > 10 µM (inactive), the GI50 [5] was > 10 µM (inactive) and the GI50 [6] was > 10 µM (inactive). The GI50 [7] was > 10 µM (inactive), the GI50 [8] was > 10 µM (inactive) and the GI50 [9] was > 10 µM (inactive). The GI50 [10] was > 10 µM (inactive), the GI50 [11] was > 10 µM (inactive) and the GI50 [12] was > 10 µM (inactive). For the same compound, the GI50 [13] was > 10 µM (inactive), the GI50 [14] was > 10 µM (inactive) and the GI50 [15] was > 10 µM (inactive). The GI50 [16] was > 10 µM (inactive), the GI50 [17] was > 10 µM (inactive) and the GI50 [18] was > 10 µM (inactive). The GI50 [19] was > 10 µM (inactive), the GI50 [20] was > 10 µM (inactive) and the GI50 [21] was > 10 µM (inactive). The GI50 [22] was > 10 µM (inactive), the GI50 [23] was > 10 µM (inactive) and the GI50 [24] was > 10 µM (inactive). The GI50 [25] was > 10 µM (inactive), the GI50 [26] was > 10 µM (inactive) and the GI50 [27] was > 10 µM. For the same compound, the GI50 [28] was > 10 µM (inactive), the GI50 [29] was > 10 µM (inactive) and the GI50 [30] was > 10 µM (inactive). The GI50 [31] was > 10 µM (inactive), the GI50 [32] was > 10 µM (inactive) and the GI50 [33] was > 10 µM (inactive). The GI50 [34] was > 10 µM (inactive), the GI50 [35] was > 10 µM (inactive) and the GI50 [36] was > 10 µM (inactive). The GI50 [37] was > 10 µM (inactive), the GI50 [38] was > 10 µM (inactive) and the GI50 [39] was > 10 µM (inactive). The GI50 [40] was > 10 µM (inactive), the GI50 [41] was > 10 µM (inactive) and the GI50 [42] was > 10 µM (inactive). For the same compound, the GI50 [43] was > 10 µM (inactive), the GI50 [44] was > 10 µM (inactive) and the GI50 [45] was > 10 µM (inactive). For the same compound, the GI50 [46] was > 10 µM (inactive), the GI50 [47] was > 10 µM (inactive) and the GI50 [48] was > 10 µM (inactive). The GI50 [49] was > 10 µM (inactive), the GI50 [50] was > 10 µM (inactive) and the GI50 [51] was > 10 µM (inactive). For the same compound, the GI50 [52] was > 10 µM (inactive), the GI50 [53] was > 10 µM (inactive) and the GI50 [54] was > 10 µM (inactive). The GI50 [55] was > 10 µM (inactive), the GI50 [56] was > 10 µM (inactive) and the GI50 [57] was > 10 µM (inactive). The GI50 [58] was > 10 µM (inactive).

In the case of `NC1CC(=O)c2csc(Cl)c21` (stereo unspecified), the GI50 [1] is reported as 17.3 µM (inactive), the GI50 [2] is reported as 12.8 µM (inactive) and the GI50 [3] is reported as 10.1 µM (inactive). The GI50 [4] was 5.33 µM (inactive), the GI50 [5] was 4.46 µM (inactive) and the GI50 [6] was 15.7 µM (inactive). For the same compound, the GI50 [7] was 6.61 µM (inactive), the GI50 [8] was 17.5 µM (inactive) and the GI50 [9] was 8.11 µM (inactive). The GI50 [10] was 17.1 µM (inactive), the GI50 [11] was 22.5 µM (inactive) and the GI50 [12] was 9.46 µM (inactive). For the same compound, the GI50 [13] was 17.3 µM (inactive), the GI50 [14] was 2.05 µM (inactive) and the GI50 [15] was 0.736 µM (active). For the same compound, the GI50 [16] was 0.234 µM (active), the GI50 [17] was 3.86 µM (inactive) and the GI50 [18] was 2.72 µM (inactive). The GI50 [19] was 3.98 µM (inactive), the GI50 [20] was 6.38 µM (inactive) and the GI50 [21] was 10.1 µM (inactive). The GI50 [22] was 20.7 µM (inactive), the GI50 [23] was 37 µM (inactive) and the GI50 [24] was 8.63 µM (inactive). For the same compound, the GI50 [25] was 11.5 µM (inactive), the GI50 [26] was 25.9 µM (inactive) and the GI50 [27] was 5.41 µM. For the same compound, the GI50 [28] was 10.3 µM (inactive), the GI50 [29] was 35.5 µM (inactive) and the GI50 [30] was 18.5 µM (inactive). The GI50 [31] was 1.55 µM (inactive), the GI50 [32] was 8.99 µM (inactive) and the GI50 [33] was 17.7 µM (inactive). For the same compound, the GI50 [34] was 5.75 µM (inactive), the GI50 [35] was 2.68 µM (inactive) and the GI50 [36] was 17.9 µM (inactive). For the same compound, the GI50 [37] was 17.1 µM (inactive), the GI50 [38] was 1.48 µM (inactive) and the GI50 [39] was 17.5 µM (inactive). For the same compound, the GI50 [40] was 14.1 µM (inactive), the GI50 [41] was 17.1 µM (inactive) and the GI50 [42] was 8.51 µM (inactive). For the same compound, the GI50 [43] was 14.9 µM (inactive), the GI50 [44] was 5.42 µM (inactive) and the GI50 [45] was 27 µM (inactive). The GI50 [46] was 1.72 µM (inactive), the GI50 [47] was 19.6 µM (inactive) and the GI50 [48] was 4 µM (inactive). The GI50 [49] was 1.86 µM (inactive), the GI50 [50] was 2.74 µM (inactive) and the GI50 [51] was 17.3 µM (inactive). For the same compound, the GI50 [52] was 0.778 µM (active), the GI50 [53] was 10 µM (inactive) and the GI50 [54] was 2.23 µM (inactive). For the same compound, the GI50 [55] was 17.6 µM (inactive), the GI50 [56] was 5.32 µM (inactive) and the GI50 [57] was 12.9 µM (inactive). For the same compound, the GI50 [58] was 5.78 µM (inactive).
